# According to patent publication US20260374754A1, “N-((ISOQUINOLIN-6-YL)METHYL)-1H-PYRAZOLE-4-CARBOXAMIDE DERIVATIVES AS PLASMA KALLIKREIN INHIBITORS FOR THE TREATMENT OF HEREDITARY ANGIODEMA” (Takeda Pharmaceutical Company Limited, priority 2022, published 2026):
# Target: human activated kallikrein enzyme (Homo sapiens, UniProt P03952)
# Assay: Inhibition of human activated plasma kallikrein, fluorogenic PFR-AMC substrate, 500 pM enzyme format
# Assay type: biochemical
# Settings: 500 pM activated kallikrein; 300 μM PFR-AMC; 30 min preincubation; 10 min room temperature; pH 7.5; read-out: Primary Dose Response Assay: Average EC50
# Protocol: Compounds were evaluated for inhibition of the human activated kallikrein enzyme in two formats of an assay employing a fluorogenic peptide substrate. In one assay format, the concentrations of reagents were as follows: 20 mM Tris pH 7.5, 1 mM EDTA, 150 mM sodium chloride, 0.1% PEG-400, 0.1% Triton X-100, 500 pM activated kallikrein enzyme, 300 μM Pro-Phe-Arg-7-amido-4-methylcoumarin (PFR-AMC) substrate. Prior to reaction initiation with substrate, enzyme and inhibitors were preincubated for 30 min at room temperature. After initiation with substrate, reactions were incubated for 10 min at room temperature and fluorescence emission at 460 nm from 380 nm excitation measured with a microplate reader. In another assay format, the concentrations of reagents were as follows: 20 mM Tris pH 7.5, 1 mM EDTA, 150 mM sodium chloride, 0.1% PEG-400, 0.1% Triton X-100, 5 pM activated kallikrein enzyme, 300 uM PFR-AMC substrate. Prior to reaction initiation with substrate, enzyme and inhibitors were preincubated for 30 min at room temperature. After initiation with substrate, reactions were incubated for 18 hr at room temperature and fluorescence emission at 460 nm from 380 nm excitation measured with a microplate reader.
# Table 35 provides the results of the assay in the format with 500 pM activated kallikrein assay.
# Chain of human activated kallikrein enzyme (P03952 391-638 limits assumed): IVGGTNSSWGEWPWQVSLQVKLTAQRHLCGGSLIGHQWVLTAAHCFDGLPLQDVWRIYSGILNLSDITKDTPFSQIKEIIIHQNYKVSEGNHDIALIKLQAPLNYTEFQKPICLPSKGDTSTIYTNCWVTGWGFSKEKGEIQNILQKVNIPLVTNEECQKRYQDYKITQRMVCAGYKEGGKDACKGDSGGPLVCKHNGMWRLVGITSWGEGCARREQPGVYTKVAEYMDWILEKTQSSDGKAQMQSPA
# Chain of human activated kallikrein enzyme (P03952 20-390 partner limits assumed): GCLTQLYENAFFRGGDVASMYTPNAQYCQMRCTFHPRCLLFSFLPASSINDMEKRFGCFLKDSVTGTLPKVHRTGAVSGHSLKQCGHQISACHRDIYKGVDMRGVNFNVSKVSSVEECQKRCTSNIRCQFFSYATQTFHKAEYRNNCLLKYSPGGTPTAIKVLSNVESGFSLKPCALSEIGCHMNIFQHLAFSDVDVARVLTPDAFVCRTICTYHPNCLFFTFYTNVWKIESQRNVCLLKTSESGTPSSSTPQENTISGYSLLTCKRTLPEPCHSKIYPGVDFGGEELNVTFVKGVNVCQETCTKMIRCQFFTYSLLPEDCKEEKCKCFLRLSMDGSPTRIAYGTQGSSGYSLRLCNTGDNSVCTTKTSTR
row,EC50 [nM],Compound
1,< 1,"Cc1ccc2ccc(Cn3cc(C(=O)NCc4c(C)cc5c(N)nccc5c4C)cn3)cc2n1 [Example 27, N-((1-amino-5,7-dimethylisoquinolin-6-yl)methyl)-1-((2-methylquinolin-7-yl)methyl)-1H-pyrazole-4-carboxamide]"
2,< 1,"Cc1cc2c(N)nccc2c(C)c1CNC(=O)c1cnn(Cc2ccc3ncc(C4CC4)cc3c2)c1 [Example 28, N-((1-amino-5,7-dimethylisoquinolin-6-yl)methyl)-1-((3-cyclopropylquinolin-6-yl)methyl)-1H-pyrazole-4-carboxamide]"
3,1 to 10,"Cc1cc2c(N)nccc2c(C)c1CNC(=O)c1cnn(Cc2ccc(C3CC3)cc2)c1 [Example 29, N-((1-amino-5,7-dimethylisoquinolin-6-yl)methyl)-1-(4-cyclopropylbenzyl)-1H-pyrazole-4-carboxamide]"
4,< 1,"Cc1cc2c(N)nccc2c(C)c1CNC(=O)c1cnn(Cc2ccc(Cc3cccn(C)c3=O)cc2)c1 [Example 30, N-((1-amino-5,7-dimethylisoquinolin-6-yl)methyl)-1-(4-((1-methyl-2-oxo-1,2-dihydropyridin-3-yl)methyl)benzyl)-1H-pyrazole-4-carboxamide]"
5,1 to 10,"Cc1cc2c(N)nccc2c(C)c1CNC(=O)c1cnn(Cc2cccc(C3CC3)c2)c1 [Example 31, N-((1-amino-5,7-dimethylisoquinolin-6-yl)methyl)-1-(3-cyclopropylbenzyl)-1H-pyrazole-4-carboxamide]"
6,100 to 1000,"Cc1cc2c(N)nccc2c(C)c1CNC(=O)c1cnn(Cc2ccccc2C#N)c1 [Example 32, N-((1-amino-5,7-dimethylisoquinolin-6-yl)methyl)-1-(2-cyanobenzyl)-1H-pyrazole-4-carboxamide]"
7,100 to 1000,"COc1ccccc1Cn1cc(C(=O)NCc2c(C)cc3c(N)nccc3c2C)cn1 [Example 33, N-((1-amino-5,7-dimethylisoquinolin-6-yl)methyl)-1-(2-methoxybenzyl)-1H-pyrazole-4-carboxamide]"
8,100 to 1000,"Cc1cc2c(N)nccc2c(C)c1CNC(=O)c1cnn([C@@H](C)c2ccccc2)c1 [Example 34, (S)-N-((1-amino-5,7-dimethylisoquinolin-6-yl)methyl)-1-(1-phenylethyl)-1H-pyrazole-4-carboxamide]"
9,10 to 100,"Cc1ccc(Cn2cc(C(=O)NCc3c(C)cc4c(N)nccc4c3C)cn2)cc1 [Example 35, N-((1-amino-5,7-dimethylisoquinolin-6-yl)methyl)-1-(4-methylbenzyl)-1H-pyrazole-4-carboxamide]"
10,1 to 10,"Cc1ccc(Cn2cc(C(=O)NCc3c(C)cc4c(N)nccc4c3C)cn2)cc1C(F)(F)F [Example 36, N-((1-amino-5,7-dimethylisoquinolin-6-yl)methyl)-1-(4-methyl-3-(trifluoromethyl)benzyl)-1H-pyrazole-4-carboxamide]"
11,10 to 100,"Cc1cc2c(N)nccc2c(C)c1CNC(=O)c1cnn(Cc2cc(Cl)cc(Cl)c2)c1 [Example 37, N-((1-amino-5,7-dimethylisoquinolin-6-yl)methyl)-1-(3,5-dichlorobenzyl)-1H-pyrazole-4-carboxamide]"
12,> 1000,"Cc1cc2c(N)nccc2c(C)c1CNC(=O)c1cnn(Cc2ccccc2F)c1 [Example 38, N-((1-amino-5,7-dimethylisoquinolin-6-yl)methyl)-1-(2-fluorobenzyl)-1H-pyrazole-4-carboxamide]"
13,100 to 1000,"Cc1cc2c(N)nccc2c(C)c1CNC(=O)c1cnn(Cc2ccc(F)cc2)c1 [Example 39, N-((1-amino-5,7-dimethylisoquinolin-6-yl)methyl)-1-(4-fluorobenzyl)-1H-pyrazole-4-carboxamide]"
14,100 to 1000,"Cc1ccccc1Cn1cc(C(=O)NCc2c(C)cc3c(N)nccc3c2C)cn1 [Example 40, N-((1-amino-5,7-dimethylisoquinolin-6-yl)methyl)-1-(2-methylbenzyl)-1H-pyrazole-4-carboxamide]"
